Measurements reported in patent publication US8916711B2, “Imidazothiazole-chalcone derivatives as potential anticancer agents and process for the preparation thereof” (Council of Scientific and Industrial Research, priority 2009, dated 2014).
Like-named read-outs stand apart in the source and are kept apart here.

What was measured:
Format in all cases: cell-based
CCRF-CEM = test: NCI in vitro cytotoxicity (SRB, 48 h), Leukemia panel; conditions: Homo sapiens, 48 h exposure
RPMI-8226 = test: as above; conditions: Homo sapiens; RPMI-8226, Leukemia; 48 h exposure
A549/ATCC = test: NCI in vitro cytotoxicity (SRB, 48 h), Non-small cell lung panel; conditions: Homo sapiens, 48 h exposure
HOP-62 = test: as above; conditions: Homo sapiens; HOP-62, Non-small cell lung; 48 h exposure
NCI-H23 = test: as above; conditions: Homo sapiens, 48 h exposure
NCI-H460 = test: as above; conditions: Homo sapiens, 48 h exposure
COLO 205 = test: NCI in vitro cytotoxicity (SRB, 48 h), Colon panel; conditions: Homo sapiens; COLO 205, Colon; 48 h exposure
HCC-2998 = test: NCI in vitro cytotoxicity (SRB, 48 h), Colon panel; conditions: Homo sapiens; HCC-2998, Colon; 48 h exposure
HCT-116 = test: NCI in vitro cytotoxicity (SRB, 48 h), Colon panel; conditions: Homo sapiens
HT29 = test: NCI in vitro cytotoxicity (SRB, 48 h), Colon panel; conditions: Homo sapiens, HT-29, 48 h exposure
SW-620 = test: NCI in vitro cytotoxicity (SRB, 48 h), Colon panel; conditions: Homo sapiens; SW-620, Colon; 48 h exposure
SF-268 = test: NCI in vitro cytotoxicity (SRB, 48 h), CNS panel; conditions: Homo sapiens; SF-268, CNS; 48 h exposure
SF-295 = test: NCI in vitro cytotoxicity (SRB, 48 h), CNS panel; conditions: Homo sapiens; SF-295, CNS; 48 h exposure
SNB-75 = test: NCI in vitro cytotoxicity (SRB, 48 h), CNS panel; conditions: Homo sapiens; SNB-75, CNS; 48 h exposure
IGROV1 = test: NCI in vitro cytotoxicity (SRB, 48 h), Ovarian panel; conditions: Homo sapiens, IGROV-1; IGROV1, Ovarian; 48 h exposure
OVCAR-3 = test: as above; conditions: Homo sapiens; OVCAR-3, Ovarian; 48 h exposure
OVCAR-4 = test: as above; conditions: Homo sapiens; OVCAR-4, Ovarian; 48 h exposure
OVCAR-8 = test: as above; conditions: Homo sapiens; OVCAR-8, Ovarian; 48 h exposure
A498 = test: NCI in vitro cytotoxicity (SRB, 48 h), Renal panel; conditions: Homo sapiens, 48 h exposure
ACHN = test: NCI in vitro cytotoxicity (SRB, 48 h), Renal panel; conditions: Homo sapiens, 48 h exposure
PC-3 = test: NCI in vitro cytotoxicity (SRB, 48 h), Prostate panel; conditions: Homo sapiens; PC-3, Prostate; 48 h exposure
DU-145 = test: as above; conditions: Homo sapiens; DU-145, Prostate; 48 h exposure
MCF7 = test: NCI in vitro cytotoxicity (SRB, 48 h), Breast panel; conditions: Homo sapiens
Description: (§1) The imidazothiazole-chalcone hybrids 7a, 7e, 7f, 8f and 19e have been tested against sixty human tumour cell lines derived from nine cancer types (leukemia, non-small cell lung cancer, colon cancer, CNS cancer, melanoma, ovarian cancer, renal cancer, prostate cancer and breast cancer) as per NCI protocol. For each compound, dose response curves for individual cell lines have been measured at a minimum of five concentrations at 10 fold dilutions. A protocol of 48 h continuous drug exposure has been used, and a sulforhodamine B (SRB) protein assay was used to estimate cell viability or growth. The concentration for 50% cell growth inhibition (GI50), total cell growth inhibition (TGI, 0% growth) and 50% cell death (LC50, […]) compared with the control has been calculated (Table-1).

MDA-MB-231/ATCC = test: as above; conditions: Homo sapiens
Description: as §1

HS 578T = test: as above; conditions: Homo sapiens, 48 h exposure
T-47D = test: as above; conditions: Homo sapiens, T47D, 48 h exposure
LOX IMVI = test: NCI in vitro cytotoxicity (SRB, 48 h), Melanoma panel; conditions: Homo sapiens, 48 h exposure
M14 = test: as above; conditions: Homo sapiens, 48 h exposure
MDAMB-435 = test: as above; conditions: Homo sapiens, MDA-MB-435; MDAMB-435, Melanoma; 48 h exposure
SK-MEL-2 = test: as above; conditions: Homo sapiens; SK-MEL-2, Melanoma; 48 h exposure
SK-MEL-28 = test: as above; conditions: Homo sapiens; SK-MEL-28, Melanoma; 48 h exposure
UACC-25 = test: as above; conditions: Homo sapiens; UACC-25, Melanoma; 48 h exposure
Colon cancer cell lines = test: NCI in vitro cytotoxicity, whole panel; conditions: Homo sapiens
CNS cancer cell lines = test: NCI in vitro cytotoxicity, whole panel; conditions: Homo sapiens
[1] = system: Ovarian cancer cell lines; test: NCI in vitro cytotoxicity, whole panel; conditions: Homo sapiens

Question: How did the GI50 (CCRF-CEM) turn out when `COc1ccc(C(=O)/C=C/c2c(C(F)(F)F)nc3sccn23)cc1OC` [Compound 8f, (E)-1-(3,4-dimethoxyphenyl)-3-(6-(trifluoromethyl)imidazo[2,1-b]thiazol-5-yl) prop-2-en-1-one] was run?
Answer: Its GI50 is 2330 nM.

Question: What about the GI50 (RPMI-8226) of the same molecule?
Answer: The GI50 was 1620 nM.

Question: And the GI50 (A549/ATCC)?
Answer: Its GI50 is 4650 nM.

Question: What about the GI50 (HOP-62) of the same molecule?
Answer: The GI50 was 6000 nM.

Question: And the GI50 (NCI-H23)?
Answer: Its GI50 is 2780 nM.

Question: What about the GI50 (NCI-H460) of the same molecule?
Answer: Its GI50 is 1940 nM.

Question: What about the GI50 (COLO 205) of the same molecule?
Answer: Its GI50 is 4560 nM.

Question: And the GI50 (HCC-2998)?
Answer: Its GI50 is 5070 nM.

Question: And the IC50 (HCT-116; HCT-116, HCT116, Table 4, read-out: Comparative efficacy)?
Answer: The IC50 was 1400 nM.

Question: And the GI50 (HCT-116; HCT-116, Colon, 48 h exposure)?
Answer: The GI50 was 1400 nM.

Question: And the GI50 (HT29)?
Answer: Its GI50 is 2010 nM.

Question: And the GI50 (SW-620)?
Answer: Its GI50 is 1490 nM.

Question: What about the GI50 (SF-268) of the same molecule?
Answer: Its GI50 is 3440 nM.

Question: And the GI50 (SF-295)?
Answer: Its GI50 is 3140 nM.

Question: And the GI50 (SNB-75)?
Answer: The GI50 was 6870 nM.

Question: And the GI50 (IGROV1)?
Answer: Its GI50 is 3150 nM.

Question: And the GI50 (OVCAR-3)?
Answer: Its GI50 is 2120 nM.

Question: What about the GI50 (OVCAR-4) of the same molecule?
Answer: Its GI50 is 4080 nM.

Question: What about the GI50 (OVCAR-8) of the same molecule?
Answer: Its GI50 is 2400 nM.

Question: What about the GI50 (A498) of the same molecule?
Answer: Its GI50 is 7580 nM.

Question: And the GI50 (ACHN)?
Answer: The GI50 was 5100 nM.

Question: What about the GI50 (PC-3) of the same molecule?
Answer: The GI50 was 5390 nM.

Question: And the GI50 (DU-145)?
Answer: Its GI50 is 1640 nM.

Question: What about the IC50 (MCF7; MCF7, MCF-7, Table 4, read-out: Comparative efficacy) of the same molecule?
Answer: Its IC50 is 760 nM.

Question: What about the GI50 (MCF7; MCF7, Breast, 48 h exposure) of the same molecule?
Answer: Its GI50 is 760 nM.

Question: And the GI50 (MDA-MB-231/ATCC; Breast, 48 h exposure)?
Answer: The GI50 was 5910 nM.

Question: What about the IC50 (MDA-MB-231/ATCC; Table 4, read-out: Comparative efficacy) of the same molecule?
Answer: Its IC50 is 760 nM.

Question: What about the GI50 (HS 578T) of the same molecule?
Answer: The GI50 was 2510 nM.

Question: And the GI50 (T-47D)?
Answer: The GI50 was 2900 nM.

Question: What about the GI50 (LOX IMVI) of the same molecule?
Answer: The GI50 was 600 nM.

Question: What about the GI50 (M14) of the same molecule?
Answer: Its GI50 is 2670 nM.

Question: And the GI50 (MDAMB-435)?
Answer: The GI50 was 1850 nM.

Question: And the GI50 (SK-MEL-2)?
Answer: The GI50 was 4080 nM.

Question: And the GI50 (SK-MEL-28)?
Answer: Its GI50 is 8480 nM.

Question: And the GI50 (UACC-25)?
Answer: The GI50 was 7770 nM.

Question: And the GI50 (Colon cancer cell lines; Colon, average of six to eight cell lines, read-out: Log10 GI50 (converted))?
Answer: Its GI50 is 2450 nM.

Question: And the CC50 (Colon cancer cell lines; Colon, average of six to eight cell lines, read-out: Log10 LC50 (converted))?
Answer: Its CC50 is ≥ 100000 nM.

Question: What about the GI50 (Colon cancer cell lines; exposure period of at least 48 hrs, read-out: GI50, range over colon cell lines) of the same molecule?
Answer: Its GI50 is 1400 to 4560 nM.

Question: And the GI50 (CNS cancer cell lines; CNS cell, exposure period of at least 48 hrs, read-out: GI50, range over CNS cell lines)?
Answer: Its GI50 is 1870 to 6870 nM.

Question: And the GI50 (CNS cancer cell lines; CNS, average of six to eight cell lines, read-out: Log10 GI50 (converted))?
Answer: The GI50 was 3390 nM.

Question: And the CC50 (CNS cancer cell lines; CNS, average of six to eight cell lines, read-out: Log10 LC50 (converted))?
Answer: Its CC50 is ≥ 100000 nM.

Question: And the GI50 ([1]; Ovarian, average of six to eight cell lines, read-out: Log10 GI50 (converted))?
Answer: Its GI50 is 2950 nM.

Question: And the CC50 ([1]; Ovarian, average of six to eight cell lines, read-out: Log10 LC50 (converted))?
Answer: The CC50 was 100000 nM.

Question: What about the GI50 ([1]; exposure period of at least 48 hrs, read-out: GI50, range over ovarian cell lines) of the same molecule?
Answer: Its GI50 is 1880 to 4180 nM.
